This is an account of results in the METLIN SMRT retention time set (Domingo-Almenara et al. 2019).

A short description of the data set: gradient 5% acetonitrile 3 min, to 50% in 2 min, to 85% in 15 min, held 3 min, 100 µL/min. As to conditions: column: Zorbax Extend-C18 2.1 x 50 mm; eluents: water / acetonitrile, 0.1% formic acid. The method in brief: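 Retention times come from adduct peaks that were picked computationally and then checked by hand. The standards, pure and pooled in mixtures of ~100 molecules, were run on a Zorbax Extend-C18 column (2.1 × 50 mm, 1.8 μm) at 100 μL/min with water and acetonitrile, each with 0.1% formic acid. Detection was by quadrupole time-of-flight mass spectrometry in positive and negative ionization mode, with a dead volume of 40 μL and a dwell volume of 900 μL.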
`COc1ccccc1NC(=O)NCC(O)c1ccsc1` (stereo unspecified) showed an RP-LC retention time of 684 s. The figure for `CCNc1cc(N2CCCC(CCC(=O)N(C)CCc3ccccn3)C2)ncn1` (stereo unspecified) is 556 s; for `O=C(Cn1ccc2sccc2c1=O)NCc1ccc(F)cc1` it is 694 s. `Cc1cc(C)n(CCNC(=O)Cc2ccc(SC(C)C)cc2)n1` showed an RP-LC retention time of 755 s.

Turning to `CCOc1ccc(CN2CCN(C(=O)c3ccc(C#N)cc3)CC2)cn1`, the RP-LC retention time stood at 596 s.

Turning to `CCOCCCNC(=O)C1=NN(c2ccc(F)cc2)c2ccc(F)cc2S1(=O)=O`, the RP-LC retention time was found to be 885 s. Molecule `CC(C)N1C(=O)c2cccnc2Sc2cc(NC(=O)c3ccc(F)cc3)ccc21` registered an RP-LC retention time of 896 s. As for `COc1ccc(OC)c(CNC(=O)c2ccc3[nH]c4c(c3c2)CN(C(C)=O)CC4)c1`, the figure is 680 s. Regarding `Cc1ccc(NC(=O)N2CCCC2c2nc(-c3ccc(F)cc3F)no2)cc1C` (stereo unspecified), the RP-LC retention time is 1050 s. Turning to `O=C(Nc1ccc(F)cc1F)C1CCCN(S(=O)(=O)c2c[nH]c(C(=O)N3CCCC3)c2)C1` (stereo unspecified), the RP-LC retention time was determined as 792 s.

With `Cc1ccc(NC(=O)C2CCN(S(C)(=O)=O)c3ccccc3O2)cc1` (stereo unspecified), the RP-LC retention time came to 892 s.

Molecule `COc1ccccc1CNC(=O)C1CCCN1S(=O)(=O)c1cc2c(cc1C)NC(=O)CO2` (stereo unspecified) had an RP-LC retention time of 764 s. On to `Cn1cccc1CN(C(=O)CC(c1ccccc1)c1ccccc1)C1CC1`, for which the RP-LC retention time was 1080 s. Take `Cc1csc(-c2cc(S(=O)(=O)NCc3ccco3)c(C)n2C)n1`: the RP-LC retention time stood at 864 s.

In the case of `O=C(CCNc1c(-c2ccccc2)nc2cnccn12)N1CCC(N2CCCCC2)CC1`, the RP-LC retention time is 552 s. The figure for `Cc1ccc(-c2noc(C3CCCN3C(=O)C3CC(=O)N(c4ccc(C)cc4)C3)n2)cc1` (stereo unspecified) is 989 s; for `C=CCN1C(=O)COc2ccc(-c3nc(NC(=O)C4CC4)sc3C)cc21` it is 887 s. On to `CCn1c(=O)c(N2CCC(C(=O)NCCCN3CCCC3=O)CC2)nc2ccccc21`, for which the RP-LC retention time is 643 s. For the molecule `COc1ccc(NS(=O)(=O)c2cc(-c3nnc(C(=O)N4CCCC4)o3)sc2C)cc1OC`, the RP-LC retention time is 806 s. Consider `COc1cc(NC(=O)c2ccccn2)ccc1Cl`, for which the RP-LC retention time is 994 s.

The molecule `CC(C)NCC(O)COc1ccc(Br)cc1Br` (stereo unspecified) had an RP-LC retention time of 586 s. `O=C(NCc1cccs1)c1nc(N2CCOCC2)c2ccccc2n1` yielded an RP-LC retention time of 641 s.

In turn, `COc1cccc(NC(=O)Cc2csc3nc(-c4ccccc4)cn23)c1` gave an RP-LC retention time of 791 s. `COc1cc(Cl)ccc1C(=O)NC1CCN(c2cc(-c3cccs3)[nH]n2)C1` (stereo unspecified) returned an RP-LC retention time of 795 s. In turn, `COc1cc(C(=O)NC2CCCNC2)cc(OC)c1OC` (stereo unspecified) displayed an RP-LC retention time of 621 s. `CC(C)(C)C1CCc2[nH]nc(C(=O)N3CCc4nn(CC#N)c(=O)n4CC3)c2C1` (stereo unspecified): the RP-LC retention time is 760 s. `O=C(CCSc1ccc(Cl)cc1)Nc1nc(-c2ccccc2)cs1` returned an RP-LC retention time of 1170 s. As for `Clc1cccc(-c2noc(-c3nc(-c4ccncc4)no3)n2)c1`, the figure is 1130 s.

As to `CCn1cc(C)c(C(=O)O)c1CC(=O)N1CCN(C2CCCCC2)CC1`, the RP-LC retention time worked out at 597 s. `CCc1noc(NC(C)=O)c1-c1ccc(C)c(S(=O)(=O)Nc2cccc(Cl)c2)c1` came in with an RP-LC retention time of 867 s. Regarding `Cc1ccnc(N2CCC(C(=O)NCc3ccc4c(c3)OCO4)CC2)n1`, the RP-LC retention time is 658 s. The figure for `O=C(C1=CN(c2ccc(F)cc2)c2cc(Cl)ccc2S1(=O)=O)N1CCCC1` is 844 s; for `Cc1ccc(Cl)cc1NC(=O)Cn1c(=O)cnc2cc(C(=O)NC3CC3)ccc21` it is 674 s; for `CCCCOc1ccc(C(=O)N2CCCC2c2nc(-c3ccccc3)no2)cc1` (stereo unspecified) it is 1230 s. As to `O=C(NCCc1csc(C2CCN(C(=O)C3CCC3)CC2)n1)C1CCC1`, the RP-LC retention time was 703 s. In turn, `COc1ccc(CCC(=O)NCCCOc2cccc3cccnc23)cc1` yielded an RP-LC retention time of 593 s. Molecule `CCOc1cccc(-c2noc(Cn3ccn4nc(-c5cccc(OC)c5)cc4c3=O)n2)c1` returned an RP-LC retention time of 770 s.

As for `CC1Oc2ccccc2N(CC(=O)NC2CC2)C1=O` (stereo unspecified), the RP-LC retention time is 691 s.

As for `CC(=O)Nc1ccc(C2(C(=O)O)CCC2)cc1`, the RP-LC retention time was 637 s. As for `Cc1cc(OCC(=O)NCc2ccco2)nc(N2CCCCCC2)n1`, the figure is 572 s; as for `CCc1ccc(N2C(=O)CN(S(=O)(=O)c3ccccc3)CC2(C)C(=O)NC2CCCC2)cc1` (stereo unspecified), 821 s. The figure for `CCOC(=O)c1cnc2c(-c3ccc(F)cc3)c(COC)nn2c1N` is 981 s. Take `Brc1ccc(OCc2nnc3sc(-c4cccnc4)nn23)cc1`: the RP-LC retention time was found to be 831 s. The figure for `CCN1CCn2cc(S(=O)(=O)NCc3ccccc3Cl)cc2C1=O` is 713 s; for `CC(C)(C)c1cc(C(=O)NCc2cccnc2)nc2ccnn12` it is 657 s.

Take `Cc1ccc(CNC(=O)c2cccc(C3CCCN(C(=O)NC(C)C)C3)c2)cc1C` (stereo unspecified): the RP-LC retention time came out at 952 s.

For the molecule `O=C(Cn1c(=O)oc2ccccc21)N1CCC2(CC1)NCCc1c2[nH]c2ccccc12`, the RP-LC retention time is 597 s. With `C=CCN(Cc1nc(-c2ccc(C)cc2)no1)C(=O)Nc1ccccc1OC`, the RP-LC retention time is 1130 s. The figure for `Cc1cc(C)c(NC(=O)Cn2nc(N3CCC(C)CC3)c3ccccc3c2=O)c(C)c1` is 1300 s; for `Cc1ccc(Nc2ccc(N)cc2S(=O)(=O)O)cc1` it is 652 s. In the case of `COC(=O)C(C)(N)Cc1ccc(O)cc1` (stereo unspecified), the RP-LC retention time turned out to be 573 s.

For the molecule `CCOc1ccc2nc(NCc3ccco3)sc2c1`, the RP-LC retention time was 728 s. With `c1cc2c(cc1OCc1cn(CC3CCCNC3)nn1)CCC2` (stereo unspecified), the RP-LC retention time stood at 587 s. `Cn1cc(OCc2ccccc2)c(=O)cc1C(=O)N1CCN(c2ccccn2)CC1`: the RP-LC retention time was determined as 538 s. `COc1ccc(-c2cc3nn(CC(=O)Nc4cccc(Cl)c4)c(=O)n3c(C)n2)cc1` yielded an RP-LC retention time of 979 s. With `CCCN1C(=O)c2cc(S(=O)(=O)Nc3ccc(Cl)cc3)ccc2Oc2cccnc21`, the RP-LC retention time worked out at 1110 s. In the case of `COc1cc(C(=O)N2CCN(c3cc(C)n4cnnc4n3)CC2)cc(OC)c1OC`, the RP-LC retention time was found to be 575 s. As for `CS(=O)(=O)N1CCOc2ccc(CCC(=O)NC3CCS(=O)(=O)C3)cc2C1` (stereo unspecified), the figure is 644 s; as for `c1ccc(-c2nc3nc4c(c(N5CCN(C6CCCCC6)CC5)n3n2)CCCC4)cc1`, 668 s. In turn, `COCCNc1c(C(=O)OC)c(=O)[nH]c2ccc(F)cc12` displayed an RP-LC retention time of 622 s. Turning to `COc1ccc(OC)c(CC2C(=O)Nc3c(C)cccc32)c1` (stereo unspecified), the RP-LC retention time is 882 s. In turn, `CCn1cc(-c2nc(C)c(C(=O)Nc3ccccc3)s2)c2cccnc21` had an RP-LC retention time of 965 s. In turn, `CCOc1ccc(N2C(=O)CC(c3ccc(OC)c(OC)c3)CC2=O)cc1` yielded an RP-LC retention time of 841 s. Turning to `COc1ccccc1N1CCN(C(=O)Cn2cnc3onc(C)c3c2=O)CC1`, the RP-LC retention time came to 720 s.

Take `CC(=O)N1c2ccc(S(=O)(=O)N3CCOCC3)cc2CC1C(=O)N1CCCCC1` (stereo unspecified): the RP-LC retention time stood at 697 s. Regarding `C=CCn1c(C)c(CC(=O)NCCOC)c(=O)n2nc(-c3ccc(C)cc3)nc12`, the RP-LC retention time is 732 s. The figure for `COc1cccc(C(O)CN2CCN(c3ccccc3C)CC2)c1` (stereo unspecified) is 691 s. With `Cc1ccc(-c2nc3ccccn3c2NC(=O)NCc2ccccc2)cc1`, the RP-LC retention time was 657 s.

Molecule `Cc1oc(-c2[nH]ncc2C(=O)N2CCCCC2)cc1S(=O)(=O)Nc1ccccc1` yielded an RP-LC retention time of 730 s. Molecule `COc1ccc(-c2nc(C3CC(=O)N(c4ccc(F)c(Cl)c4)C3)no2)c(OC)c1` (stereo unspecified) displayed an RP-LC retention time of 1000 s. For `CCc1ccc(S(=O)(=O)c2cnc(N3CCC4(CC3)OCCO4)nc2N)cc1`, the RP-LC retention time came out at 944 s. `CCn1c(=O)c(N2CCC(NC(=O)Nc3ccc(OC)c(OC)c3)CC2)nc2ccccc21` showed an RP-LC retention time of 785 s. As for `CCC(C(=O)Nc1ccc2c(c1)OCCO2)n1cnc2nc3c(cc2c1=O)CCCC3` (stereo unspecified), the RP-LC retention time was 763 s. Regarding `CCC(CC)NC(=O)[C@@H]1[C@H](c2cc(OC)c(OC)c(OC)c2)c2cc3c(cc2[C@H](O)[C@H]1CO)OCO3`, the RP-LC retention time is 692 s. In turn, `CN(C)[C@@H]1CN(C(=O)COc2ccccc2)C[C@H]1CO` came in with an RP-LC retention time of 546 s. In turn, `Cc1cccc(-n2c(N3CCCC(C(=O)NCc4ccc(C)c(C)c4)C3)nc3ccsc3c2=O)c1` (stereo unspecified) yielded an RP-LC retention time of 1020 s. `N#Cc1c(NC(=O)C2Cc3ccccc3C(=O)O2)sc2c1CCCC2` (stereo unspecified) had an RP-LC retention time of 663 s. For `CC(NC(=O)CC1CCCCC1)C(=O)Nc1nc2ccccc2[nH]1` (stereo unspecified), the RP-LC retention time was determined as 663 s.

Molecule `COc1ccccc1CC(=O)Nc1cnc(C)nc1` registered an RP-LC retention time of 664 s. `N#Cc1cccc(S(=O)(=O)N2CCc3nc[nH]c3C2)c1` returned an RP-LC retention time of 592 s.

As to `Cc1ccc(NC(=O)c2c(C)sc3ncnc(N4CCCC(C)C4)c23)cc1F` (stereo unspecified), the RP-LC retention time turned out to be 1290 s.
